According to a melting point compilation (Tetko et al.; mined from patent text by program, amines drawn as free bases though some values may be those of a salt):

| SMILES | melting point [°C] |
| --- | --- |
| CC[C@@]12C/C(=C\c3ccccc3)C(=O)C[C@H]1CCc1cc(O)ccc12 | 265 to 266 |
| CCNC(=S)Nc1nccs1 | 135 to 136 |
| CCCc1ncc(/C=C(\Cc2cccs2)c2nnn[nH]2)n1Cc1ccccc1Cl | 174 to 175 |
| CC=COc1cc(N)c(Cl)cc1C(=O)O | 136 to 137 |
| O=C(NCCc1ccccc1Cl)c1c(Cl)ccc2nc(N3CCC(C(=O)O)CC3)ccc12 | 250 to 253 |
| O=C1OC(=O)c2c1c1c3ccccc3[nH]c1c1c2c2cccnc2n1C1OC(CO)C(O)C(O)C1O (stereo not drawn) | > 300 |
| CSc1cccc(SC)c1S(N)(=O)=O | 197 to 199 |
| Cc1ccc(S(=O)(=O)N2CCC(Sc3ccccc3)CC2)cc1 | 105 to 108 |
| COC(=O)[C@@H](CCN1C(=O)c2ccccc2C1=O)Oc1c(Br)cc(-c2c(Br)ccc3sc4ccccc4c23)cc1Br | 99 to 101 |
| CCC12CCC3C4CCC(=O)C=C4CCC3C1CCC2OC (stereo not drawn) | 117 to 119 |
| N#Cc1cc(Br)c2c(c1)N(C1CC1)CNS2(=O)=O | 250 to 253 |
| S=C(Cc1cccnc1)N1CCC(=C2c3ccc(Cl)cc3CCc3cccnc32)CC1 | 92 to 93 |
| Nc1ccccc1Oc1c(C(=O)O)[nH]c2ccccc12 | 217 to 218 |
| COc1cc2c(N)nc(N3CCN(c4nc5ccccc5s4)CC3)nc2c(OC)c1OC | > 250 |
| COc1ccc(S(=O)(=O)C(C(=O)NO)C(C)C)cc1 (stereo not drawn) | 220 |
| O=C(O)C(CC(=O)N1CC2CC=CCC2C1)Cc1ccccc1 (stereo not drawn) | 128 to 132 |
| Oc1ccc(Oc2cnc3cc(F)ccc3n2)cc1 | 78 to 79 |
| CSC1=Nc2ccncc2S(=O)(=O)N1C | 135 to 138 |
| CCCc1c(C(=O)CC)c2ccc(C(N)=O)cc2n1Cc1ccccc1Cl | 151 to 152 |
| CC(COc1cccc2ccccc12)Nc1ccc(C(=O)O)cc1 (stereo not drawn) | 194 to 197 |
| O=C(CCC1CCNCC1)c1cc2c3c(c1)CCN3C(=O)CC2 | 114 to 115 |
| Cc1cc(Cl)ccc1N=c1ssnc1Cl | 130 to 131 |

| SMILES | melting point [°C] |
| --- | --- |
| CCOC(=O)C=Cc1c(OCc2ccc(OCc3nc(-c4ccccc4)oc3C)cc2)ccc2ccccc12 | 73 to 74 |
| COc1cc2cc(C(N)=O)cnc2cc1F | 231 |
| CC(C)(C)OC(=O)C1CCCN2C(=O)CC(=O)N12 (stereo not drawn) | 121 to 122 |
| O=C(Nc1cccc(Cl)c1)N1CCc2cc(S(=O)(=O)N3CCN(c4cccc(Cl)c4)CC3)ccc21 | 190 |
| O=[N+]([O-])c1ccccc1S(=O)(=O)NOCc1ccccc1 | 148 to 151 |
| Cc1ccc(S(=O)(=O)N2CCCC2c2nnnn2[C@@](C)(Cc2ccc([N+](=O)[O-])cc2)C(=O)O)cc1 (stereo partly drawn) | 150 to 160 |
| Cc1noc(C)c1-c1nn(C(C)c2oc3ccccc3c(=O)c2-c2cccc(F)c2)c2ncnc(N)c12 (stereo not drawn) | 218 to 222 |
| CCc1cc2c(s1)-n1c(nnc1CNC(=O)c1cc3ccccc3n1CC(=O)O)CN=C2c1ccccc1Cl | 222 to 223 |
| Cn1ccc(S(=O)(=O)NC(C)(C)C)c1C=O | 102 to 103 |
| Cc1c(C)c2c(c(C)c1Br)C(c1ccc(C(C)C)cc1)CO2 (stereo not drawn) | 86 to 87 |
| CC(C)(C)OC(=O)c1cc([N+](=O)[O-])cc([N+](=O)[O-])c1N(CCO)CCCl | 106 to 107 |
| COc1cc(CC(=O)NC(CC(C)C)c2cc(CC(NC(C)=O)C(=O)O)on2)ccc1NC(=O)Nc1ccccc1C (stereo not drawn) | 123 to 125 |
| CC1(CC(=O)N2CCC([C@H]3c4ncc(Br)cc4CCc4cc(Cl)cc(Br)c43)CC2)C=CN(S(C)(=O)=O)C=C1 | 105 to 109 |
| COCCOc1ccc(Nc2cc(Nc3ccc(F)c(Cl)c3)ncn2)cc1 | 208 to 210 |
| Oc1ccc(-c2nn(-c3ccc(Br)cc3)c3cc(O)ccc23)c(O)c1 | 246 |
| O=[N+]([O-])c1ccc(Nc2cccc(C(F)(F)C(F)(F)C(F)(F)C(F)(F)C(F)(F)C(F)(F)C(F)(F)C(F)(F)F)c2)c([N+](=O)[O-])c1 | 124 to 125 |
| N#Cc1cn(Cc2c(F)cccc2F)nn1 | 116 |
| C=CCOC(=O)COc1cccc(NC(=O)NCNC(=O)c2ccccc2C(=O)c2ccccc2)c1 | 147 to 149 |
| O=C(O)CC(=O)Nc1ccccc1CCNC(=O)/C(=C/c1c[nH]c2ccccc12)NC(=O)OC1C2CC3CC(C2)CC1C3 (stereo not drawn) | 112 to 120 |
| CC#CCOc1ccc(S(=O)(=O)C(C(=O)NO)c2ccc(-c3cccs3)cc2)cc1 (stereo not drawn) | 175 |
| COc1cc2ncnc(N3CCCN(C(=O)Nc4ccc([N+](=O)[O-])cc4)CC3)c2cc1OC | 243 to 244 |
| Cc1ccccc1-n1c(CF)nc2ccc(N)cc2c1=O | 195 to 196 |

Now from value to compound:

| melting point [°C] | SMILES |
| --- | --- |
| 55 to 56 | CCOP(=O)(Cc1cccc2cccc(CP(=O)(OCC)OCC)c12)OCC |
| 138 to 140 | COc1ccc(N(CCCC(=O)O)C(=O)CCN(C(=O)c2ccc(Cl)cc2)c2c(C)cccc2C)cc1 |
| 117 to 119 | CCOC(=O)C1=Cc2cc(C#C[Si](C)(C)C)ccc2NC1C(F)(F)F (stereo not drawn) |
| 111 to 115 | CCOC(=O)Cn1ccc2ccc3c(c21)CCN(C(=O)OC(C)(C)C)CC3 |
| 93 to 94 | COC(=O)c1c(Cl)cc(Cl)cc1NC(=O)CSc1ccccc1C |
| 156 to 157 | O=C(Oc1ccc(Oc2ccc(C(F)(F)F)cn2)cc1)N1CCS(=O)CC1 |
| 247 to 252 | Cc1ccc2c(c1)c(=O)c1c(cnn1C)n2CC(N)=O |
| 189 to 191 | COc1cc(C(=O)N(C(C)C)C2CCCCC2)ccc1Cn1cnc2ncccc21 |
| 110 to 112 | CCOC(=O)C1=C(C)N=C(SCc2ccccc2)N(C(=O)OCC)C1c1ccccc1[N+](=O)[O-] (stereo not drawn) |
| 60.5 to 61 | CCCCOc1cc(CCCC(=O)O)n(Cc2ccc(Cl)cc2Cl)n1 |
| 64 to 65 | CCCCOc1cc(Oc2ccc(C(F)(F)F)cn2)ccc1CCCOc1c(CC(=O)O)cccc1OC |
| 99 to 101 | O=C(NCCCC(F)(F)F)c1nc(-c2ccc(Cl)cc2Cl)c(-c2ccc(Cl)cc2)s1 |
| 223 | CCN(CC)C(=O)Cn1c(=N)sc2cc(OC(F)(F)F)ccc21 |
| 94 to 95 | CCOC(=O)/C=C/c1cn(Cc2ccc(OCc3ccccc3)cc2)nc1-c1ccccc1 |
| 93 to 94 | CCOC(=O)/C=C(C)/C=C/C=C(C)/C=C/c1c(Cl)cc(OC(F)(F)F)c(C)c1Cl |
| > 300 | Cc1[nH]c(=O)c(C(N)=O)cc1-c1ccc2nccn2c1 |
| 112 to 114 | CN(C)CCCNC(=S)Nc1ccccc1 |
| 169 to 170 | Cc1nc2c(N)nc3ccccc3c2n1CCCCNC(=O)C1CCCC1 |
| 76.5 | CC#CC(C)(C)NC(=O)C(OCC)Oc1cc(Cl)cc(Cl)c1 (stereo not drawn) |
| 115 | COC(=O)c1sc(-c2ccccc2)cc1NC(C)=O |
| 161 to 162 | Cc1cc(C)nc(NC(=N)Nc2ccccc2C(F)(F)F)n1 |
| 157 to 159 | CCOC(=O)N1c2cc(OC)c(OC)cc2[C@H](NC(=O)Cc2cc(C(F)(F)F)cc(C(F)(F)F)c2)C[C@@H]1C (relative stereo) |
| 57.5 to 58.5 | CCOC(=O)CCSc1nnsc1-c1ccccc1 |
| 148 | COC(=O)c1ccc2cc(-c3ccc(C(C)(C)C)cc3)oc2c1 |
